Results published in patent US20140303164A1, “THERAPEUTIC COMPOUNDS” (Gilead Sciences, Inc., priority 2013, published 2014).

Tested on: HIV-IIIb
Test: Test A: Antiviral Assay in MT4 Cells
Format: cell-based, HIV-1
Settings: for inhibition at 0.2 µM / inhibition at 2 µM: Human immunodeficiency virus 1, IIIB, MT4, 120 h; for inhibition at 0.2 µM: read-out: % inhibition at 0.2 μM; for inhibition at 2 µM: read-out: % inhibition at 2 μM
Procedure: Test A: Antiviral Assay in MT4 Cells
MT-4 cells were next mixed with HIV-IIIb at an m.o.i of 0.003 for 1 hour, after which time 35 μL of virus/cell mixture (2000 cells) was immediately added to each well containing 40 μL of diluted compound. The plates were then incubated at 37° C. for 5 days. […] Cell lysis was carried out by incubating at room temperature for 10 min and then chemiluminescence was read.

## CC(C)(O)C#Cc1ccc(-c2cccc3c2CNC3=O)c([C@H](Cc2cc(F)cc(F)c2)NC(=O)Cn2nc(C(F)(F)F)c3c2C(F)(F)[C@@H]2C[C@H]32)n1 [Compound 14E, 2-((3bS,4aR)-5,5-difluoro-3-(trifluoromethyl)-3b,4,4a,5-tetrahydro-1H-cyclopropa[3,4]cyclopenta[1,2-c]pyrazol-1-yl)-N—((S)-2-(3,5-difluorophenyl)-1-(6-(3-hydroxy-3-methylbut-1-yn-1-yl)-3-(1-oxoisoindolin-4-yl)pyridin-2-yl)ethyl)acetamide]
  inhibition at 0.2 µM: 87%

## NC(=O)c1cc(-c2ccc(-c3ccc(F)c(C(N)=O)c3)c([C@H](Cc3cc(F)cc(F)c3)NC(=O)Cn3nc(C(F)F)c4c3C(F)(F)CCC4(F)F)n2)ccc1F [Compound 5G, (S)-5,5′-(6-(1-(2-(3 (difluoromethyl)-4,4,7,7-tetrafluoro-4,5,6,7-tetrahydro-1H-indazol-1-yl)acetamido)-2-(3,5-difluorophenyl)ethyl)pyridine-2,5-diyl)bis(2-fluorobenz amide)]
Percent inhibition of virus-induced cell killing at 0.2 μM, comparison with previously published compounds (WO 2013/006738)
  Response at 0.2 μM: 3%
Percent inhibition of virus-induced cell killing at 2 μM, comparison with previously published compounds (WO 2013/006738)
  Response at 2 μM: 58%

## CC(C)(O)C#Cc1ccc(-c2cccc3c2CNC3=O)c([C@H](Cc2cc(F)cc(F)c2)NC(=O)Cn2nc(C(F)(F)F)c3c2C(F)(F)[C@@H]2C[C@H]32)n1 [Compound 15, 2-((3bS,4aR)-5,5-difluoro-3-(trifluoromethyl)-3b,4,4a,5-tetrahydro-1H-cyclopropa[3,4]cyclopenta[1,2-c]pyrazol-1-yl)-N—((S)-2-(3,5-difluorophenyl)-1-(6-(3-hydroxy-3-methylbut-1-yn-1-yl)-3-(1-oxoisoindolin-4-yl)pyridin-2-yl)ethyl)acetamide]
Percent inhibition of virus-induced cell killing at 2 μM drug concentration, from dose response curve, MT-4 cells, HIV-IIIb, 5 days, values above 100 normalized to 100
  % inhibition at 2 μM: 94%

## Cn1nc(NS(C)(=O)=O)c2c(F)ccc(-c3ccc(C#CC(C)(C)O)nc3[C@H](Cc3cc(F)cc(F)c3)NC(=O)Cn3nc(C(F)F)c4c3C(F)(F)[C@@H]3C[C@H]43)c21 [Compound 75, 2-((3b-S,4aR)-3-(difluoromethyl)-5,5-difluoro-3b,4,4a,5-tetrahydro-1H-cyclopropa[3,4]cyclopenta[1,2-c]pyrazol-1-yl)-N—((S)-2-(3,5-difluorophenyl)-1-(3-(4-fluoro-1-methyl-3-(methylsulfonamido)-1H-indazol-7-yl)-6-(3-hydroxy-3-methylbut-1-yn-1-yl)pyridin-2-yl)ethyl)acetamide]
  inhibition at 0.2 µM: 92%
  inhibition at 2 µM: 93%

## CC(C)(O)C#Cc1cnc([C@H](Cc2cc(F)cc(F)c2)NC(=O)Cn2nc(C(F)F)c3c2C(F)(F)CCC3(F)F)c(-c2ccc3c(c2)C(=O)NC3)c1 [Compound 4H, (S)-2-(3-(difluoromethyl)-4,4,7,7-tetrafluoro-4,5,6,7-tetrahydro-1H-indazol-1-yl)-N-(2-(3,5-difluorophenyl)-1-(5-(3-hydroxy-3-methylbut-1-ynyl)-3-(3-oxoisoindolin-5-yl)pyridin-2-yl)ethyl)acetamide]
  inhibition at 0.2 µM: 8%

## CC(C)(O)C#Cc1ccc(-c2cccc3c(=O)[nH]c(=O)[nH]c23)c([C@H](Cc2cc(F)cc(F)c2)NC(=O)Cn2nc(C(F)(F)F)c3c2C(F)(F)[C@@H]2C[C@H]32)n1 [Compound 17, 2-((3bS,4aR)-5,5-difluoro-3-(trifluoromethyl)-3b,4,4a,5-tetrahydro-1H-cyclopropa[3,4]cyclopenta[1,2-c]pyrazol-1-yl)-N—((S)-2-(3,5-difluorophenyl)-1-(3-(2,4-dioxo-1,2,3,4-tetrahydroquinazolin-8-yl)-6-(3-hydroxy-3-methylbut-1-ynyl)pyridin-2-yl)ethyl)acetamide]
  inhibition at 0.2 µM: 95%

## O=C(Cn1nc(C(F)F)c2c1C(F)(F)CCC2(F)F)N[C@@H](Cc1cc(F)cc(F)c1)c1nc(-c2ccc3c(c2)C(=O)NC3)ccc1-c1ccc2c(c1)C(=O)NC2 [Compound 6, (S)—N-(1-(3,6-bis(3-oxoisoindolin-5-yl)pyridin-2-yl)-2-(3,5-difluorophenyl)ethyl)-2-(3-(difluoromethyl)-4,4,7,7-tetrafluoro-4,5,6,7-tetrahydro-1H-indazol-1-yl)acetamide]
  inhibition at 0.2 µM: 5%

## CC(C)(O)C#Cc1ccc(-c2ccc3c(c2)C(=O)NC3)c([C@H](Cc2cc(F)cc(F)c2)NC(=O)Cn2nc(C(F)F)c3c2C(F)(F)CCC3(F)F)n1 [Compound 9B, (S)-2-(3-(difluoromethyl)-4,4,7,7-tetrafluoro-4,5,6,7-tetrahydro-1H-indazol-1-yl)-N-(2-(3,5-difluorophenyl)-1-(6-(3-hydroxy-3-methylbut-1-yn-1-yl)-3-(3-oxoisoindolin-5-yl)pyridin-2-yl)ethyl)acetamide]
  inhibition at 0.2 µM: 92%

## COc1cc(-c2ccc(-c3ccc4c(c3)C(=O)NC4)c([C@H](Cc3cc(F)cc(F)c3)NC(=O)Cn3nc(C(F)F)c4c3C(F)(F)CCC4(F)F)n2)ccn1 [Compound 8C, (S)-2-(3-(difluoromethyl)-4,4,7,7-tetrafluoro-4,5,6,7-tetrahydro-1H-indazol-1-yl)-N-(2-(3,5-difluorophenyl)-1-(2′-methoxy-5-(3-oxoisoindolin-5-yl)-[2,4′-bipyridin]-6-yl)ethyl)acetamide]
  inhibition at 0.2 µM: 6%

## Cn1nc(NS(C)(=O)=O)c2c(Cl)ccc(-c3ccc(C#CC(C)(C)N)nc3[C@H](Cc3cc(F)cc(F)c3)NC(=O)Cn3nc(C(F)F)c4c3C(F)(F)[C@@H]3C[C@H]43)c21 [Compound 127, N—((S)-1-(6-(3-amino-3-methylbut-1-yn-1-yl)-3-(4-chloro-1-methyl-3-(methylsulfonamido)-1H-indazol-7-yl)pyridin-2-yl)-2-(3,5-difluorophenyl)ethyl)-2-((3bS,4aR)-3-(difluoromethyl)-5,5-difluoro-3b,4,4a,5-tetrahydro-1H-cyclopropa[3,4]cyclopenta[1,2-c]pyrazol-1-yl)acetamide]
  inhibition at 0.2 µM: 92%
  inhibition at 2 µM: 92%

## O=C(Cn1nc(C(F)F)c2c1C(F)(F)CCC2(F)F)N[C@@H](Cc1cc(F)cc(F)c1)c1nc(-c2cnc3[nH]ccc3c2)ccc1-c1cnc2[nH]ccc2c1 [Compound 7, (S)—N-(1-(3,6-bis(1H-pyrrolo[2,3-b]pyridin-5-yl)pyridin-2-yl)-2-(3,5-difluorophenyl)ethyl)-2-(3-(difluoromethyl)-4,4,7,7-tetrafluoro-4,5,6,7-tetrahydro-1H-indazol-1-yl)acetamide]
  inhibition at 0.2 µM: 8%

## NC(=O)c1ccc(-c2cnc3[nH]ccc3c2)c([C@H](Cc2cc(F)cc(F)c2)NC(=O)Cn2nc(C(F)F)c3c2C(F)(F)CCC3(F)F)n1 [Compound 1B, (S)-6-(1-(2-(3-(difluoromethyl)-4,4,7,7-tetrafluoro-4,5,6,7-tetrahydro-1H-indazol-1-yl)acetamido)-2-(3,5-difluorophenyl)ethyl)-5-(1H-pyrrolo[2,3-b]pyridin-5-yl)picolinamide]
  inhibition at 0.2 µM: 17%

## COc1ccc(-c2ccc(C#CC(C)(C)O)nc2[C@H](Cc2cc(F)cc(F)c2)NC(=O)Cn2nc(C(F)F)c3c2C(F)(F)[C@@H]2C[C@H]32)c2c1c(NS(C)(=O)=O)nn2C [Compound 141D, 2-((3b-S,4aR)-3-(difluoromethyl)-5,5-difluoro-3b,4,4a,5-tetrahydro-1H-cyclopropa[3,4]cyclopenta[1,2-c]pyrazol-1-yl)-N—((S)-2-(3,5-difluorophenyl)-1-(6-(3-hydroxy-3-methylbut-1-yn-1-yl)-3-(4-methoxy-1-methyl-3-(methylsulfonamido)-1H-indazol-7-yl)pyridin-2-yl)ethyl)acetamide]
  inhibition at 0.2 µM: 100%
  inhibition at 2 µM: 100%

## O=C(Cn1nc(C(F)F)c2c1C(F)(F)CCC2(F)F)N[C@@H](Cc1cc(F)cc(F)c1)c1ncc(-c2ccc3c(c2)C(=O)NC3)cc1-c1ccc2c(c1)C(=O)NC2 [Compound 10B, (S)—N-(1-(3,5-bis(3-oxoisoindolin-5-yl)pyridin-2-yl)-2-(3,5-difluorophenyl)ethyl)-2-(3-(difluoromethyl)-4,4,7,7-tetrafluoro-4,5,6,7-tetrahydro-1H-indazol-1-yl)acetamide]
  inhibition at 0.2 µM: 1%

## Cn1nc(NS(C)(=O)=O)c2c(Cl)ccc(-c3ccc(C#CC(C)(C)O)nc3[C@H](Cc3cc(F)cc(F)c3)NC(=O)Cn3nc(C(F)F)c4c3C(F)(F)[C@@H]3C[C@H]43)c21 [Compound 19G, (S)—N-(1-(3-(4 chloro-1-methyl-3-(methylsulfonamido)-1H-indazol-7-yl)-6-(3-hydroxy-3-methylbut-1-ynyl)pyridin-2-yl)-2-(3,5-difluorophenyl)ethyl)-2-((3bS,4aR)-5,5-difluoro-3-(difluoromethyl)-3b,4,4a,5-tetrahydro-1H-cyclopropa[3,4]cyclopenta[1,2-c]pyrazol-1-yl)acetamide]
  inhibition at 0.2 µM: 97%
  inhibition at 2 µM: 93%

## O=C(Cn1nc(C(F)F)c2c1C(F)(F)CCC2(F)F)N[C@@H](Cc1cc(F)cc(F)c1)c1nc(-c2cc[nH]c(=O)c2)ccc1-c1ccc2c(c1)C(=O)NC2 [Compound 12, (S)-2-(3-(difluoromethyl)-4,4,7,7-tetrafluoro-4,5,6,7-tetrahydro-1H-indazol-1-yl)-N-(2-(3,5-difluorophenyl)-1-(2′-oxo-5-(3-oxoisoindolin-5-yl)-1′,2′-dihydro-[2,4′-bipyridin]-6-yl)ethyl)acetamide]
  inhibition at 0.2 µM: 1%

## CC(C)(O)C#Cc1ccc(-c2cccc3c(=O)[nH]cnc23)c([C@H](Cc2cc(F)cc(F)c2)NC(=O)Cn2nc(C(F)(F)F)c3c2C(F)(F)[C@@H]2C[C@H]32)n1 [Compound 2, 2-((3bS,4aR)-5,5-difluoro-3-(trifluoromethyl)-3b,4,4a,5-tetrahydro-1H-cyclopropa[3,4]cyclopenta[1,2-c]pyrazol-1-yl)-N—((S)-2-(3,5-difluorophenyl)-1-(6-(3-hydroxy-3-methylbut-1-yn-1-yl)-3-(4-oxo-3,4-dihydroquinazolin-8-yl)pyridin-2-yl)ethyl)acetamide]
  inhibition at 0.2 µM: 79%
